Data published in patent US20240158446A1, “CYCLIC COMPOUND HAVING SELECTIVE INHIBITORY ACTION ON KRAS OVER HRAS AND NRAS” (CHUGAI SEIYAKU KABUSHIKI KAISHA, priority 2021, published 2024).
*1 amine or outer side, *2 acyl side, *3 side chain or, on linkers, in order; H or OH if unused. Where a SMILES comes first, the peptide text is derived from it. Bridges are numbered along the chain shown (N, C = ends). [ ]: non-standard residue; d: D form. The star is where a group is joined. ξ: configuration not given here. hPhe(3-Cl-4-CF3) = N[C@@H](CCc1ccc(C(F)(F)F)c(Cl)c1)C(=O)O; X26 = C=CCN([C@@H](Cc1ccccc1)C(=O)[*:2])[*:1]; NMeGly(cPent) = CN[C@H](C(=O)O)C1CCCC1; NMeNle(5-ene) = C=CCC[C@H](NC)C(=O)O; dIle(3ξ) = CCC(C)[C@@H](N)C(=O)O; NMeD = CN[C@@H](CC(=O)O)C(=O)O; NMeL = CN[C@@H](CC(C)C)C(=O)O; Morpholide = C1CN(*)CCO1; Ac5c = NC1(C(=O)O)CCCC1; Sar = CNCC(=O)O

Tests used:
[1] = target: GDP-bound KRAS wild-type protein (Homo sapiens, UniProt P01116); experiment: Binding to KRAS by surface plasmon resonance (SPR), Single Cycle Kinetics; settings: SPR Single Cycle Kinetics, GDP-bound KRAS wild-type protein, 1:1 binding model; read-out: KRAS KD
Sequence of GDP-bound KRAS wild-type protein (P01116 whole entry): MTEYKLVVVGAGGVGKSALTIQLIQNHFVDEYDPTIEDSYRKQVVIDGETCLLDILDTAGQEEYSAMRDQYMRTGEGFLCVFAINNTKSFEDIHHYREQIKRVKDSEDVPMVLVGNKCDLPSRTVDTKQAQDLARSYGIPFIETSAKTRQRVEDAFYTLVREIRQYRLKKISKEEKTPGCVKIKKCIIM

[2] = target: GDP-bound NRAS wild-type protein (Homo sapiens, UniProt P01111); experiment: Binding to NRAS by surface plasmon resonance (SPR), Single Cycle Kinetics; settings: SPR, GDP-bound NRAS wild-type protein vs GDP-bound KRAS wild-type protein
Sequence of GDP-bound NRAS wild-type protein (P01111 whole entry): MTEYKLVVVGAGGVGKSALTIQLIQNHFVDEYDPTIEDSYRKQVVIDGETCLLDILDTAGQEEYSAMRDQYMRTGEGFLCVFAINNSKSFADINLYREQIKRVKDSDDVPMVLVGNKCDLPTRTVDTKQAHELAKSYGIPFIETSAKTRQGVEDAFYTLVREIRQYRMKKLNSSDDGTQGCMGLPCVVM

[3] = target: GDP-bound HRAS wild-type protein (Homo sapiens, UniProt P01112); experiment: Binding to HRAS by surface plasmon resonance (SPR), Single Cycle Kinetics; settings: SPR, GDP-bound HRAS wild-type protein vs GDP-bound KRAS wild-type protein
Sequence of GDP-bound HRAS wild-type protein (P01112 whole entry): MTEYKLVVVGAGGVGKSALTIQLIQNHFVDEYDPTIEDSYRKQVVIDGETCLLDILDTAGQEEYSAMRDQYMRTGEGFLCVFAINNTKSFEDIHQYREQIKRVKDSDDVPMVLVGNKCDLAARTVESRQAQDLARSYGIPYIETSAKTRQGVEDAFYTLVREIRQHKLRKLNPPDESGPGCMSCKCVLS

| Kd [1] [nM] | SMILES | NRAS/KRAS (ratio of KD value with respect to NRAS to KD value with respect to KRAS) [2] | HRAS/KRAS (ratio of KD value with respect to HRAS to KD value with respect to KRAS) [3] |
| --- | --- | --- | --- |
| 6.2 | CC[C@H](C)[C@@H]1NC(=O)[C@H](CC(C)C)N(C)C(=O)C[C@@H](C(=O)N2CCOCC2)N(C)C(=O)[C@H](C2CCCC2)N(C)C(=O)C2(CCCC2)NC(=O)[C@@H]2CCCN2C(=O)[C@H](CCc2ccc(C(F)(F)F)c(Cl)c2)NC(=O)CN(C)C(=O)[C@H](Cc2ccc(OC(F)(F)F)cc2)N2CCCCC[C@@H](C2=O)N(C)C(=O)CN(C)C1=O [PP0615] | B (a compound having 3 or more and less than 10 is denoted as B) | B (a compound having 3 or more and less than 10 is denoted as B) |
| 6.2 | CC[C@H](C)[C@@H]1NC(=O)[C@@H](CC(C)C)N(C)C(=O)C[C@@H](C(=O)N(C)C)N(C)C(=O)[C@@H](C2CCCC2)N(C)C(=O)C2(CCCC2)NC(=O)[C@@H]2CCCN2C(=O)[C@H](CCc2ccc(C(F)(F)F)c(Cl)c2)NC(=O)CN(C)C(=O)[C@@H](Cc2ccc(C)cc2)N2CC/C=C\CCN(CC2=O)C(=O)CN(C)C1=O [PP0618] | C (A compound having a KD ratio of 0.1 or more and less than 3 is denoted as C) | C (A compound having a KD ratio of 0.1 or more and less than 3 is denoted as C) |
| 11 | CC[C@H](C)[C@@H]1NC(=O)[C@H](CC(C)C)N(C)C(=O)C[C@@H](C(=O)N(C)C)N(C)C(=O)[C@H](C2CCCC2)N(C)C(=O)C2(CCCC2)NC(=O)[C@@H]2CCCN2C(=O)[C@H](CCc2ccc(C(F)(F)F)c(Cl)c2)NC(=O)CN(C)C(=O)[C@H](Cc2ccc(C(F)(F)F)cc2)N2CC/C=C\COC[C@@H](C2=O)N(C)C(=O)CN(C)C1=O [PP0622] | B (a compound having 3 or more and less than 10 is denoted as B) | B (a compound having 3 or more and less than 10 is denoted as B) |
| 2.3 | CCO[C@@H]1C[C@H]2C(=O)NC3(CCC3)C(=O)N(C)[C@@H](C3CCCC3)C(=O)N(CC)[C@H](C(=O)N(C)C)CC(=O)N(C)[C@@H](CC)C(=O)N[C@@H]([C@@H](C)CC)C(=O)N(C)CC(=O)N(C)[C@H]3CCCCCN(C3=O)[C@@H](Cc3ccc(C(F)(F)F)cc3)C(=O)N(C)CC(=O)N[C@@H](CCc3cc(F)c(C(F)(F)F)c(F)c3)C(=O)N2C1 [PP0633] | B (a compound having 3 or more and less than 10 is denoted as B) | B (a compound having 3 or more and less than 10 is denoted as B) |
| 2.7 | CCO[C@@H]1C[C@H]2C(=O)NC3(CCC3)C(=O)N(C)[C@@H](C3CCCC3)C(=O)N(CCC3CCC3)[C@H](C(=O)N(C)C)CC(=O)N(C)[C@@H](CC)C(=O)N[C@@H]([C@@H](C)CC)C(=O)N(C)CC(=O)N(C)[C@H]3CCCCCN(C3=O)[C@@H](Cc3ccc(C(F)(F)F)cc3)C(=O)N(C)CC(=O)N[C@@H](CCc3cc(F)c(C(F)(F)F)c(F)c3)C(=O)N2C1 [PP0635] | B (a compound having 3 or more and less than 10 is denoted as B) | B (a compound having 3 or more and less than 10 is denoted as B) |

The next lines start with the compound.

| SMILES | Kd [1] [nM] | NRAS/KRAS (ratio of KD value with respect to NRAS to KD value with respect to KRAS) [2] | HRAS/KRAS (ratio of KD value with respect to HRAS to KD value with respect to KRAS) [3] |
| --- | --- | --- | --- |
| C=CCC[C@H]1C(=O)N(CC=C)[C@@H](Cc2ccccc2)C(=O)N(C)CC(=O)N[C@@H](CCc2ccc(C(F)(F)F)c(Cl)c2)C(=O)N2CCC[C@H]2C(=O)NC2(CCCC2)C(=O)N(C)[C@@H](C2CCCC2)C(=O)N(C)[C@H](C(=O)N2CCOCC2)CC(=O)N(C)[C@@H](CC(C)C)C(=O)N[C@H](C(C)CC)C(=O)N(C)CC(=O)N1C (stereo partly drawn) [PP0599] ([NMeL][dIle(3ξ)][Sar][NMeNle(5-ene)][X26][Sar][hPhe(3-Cl-4-CF3)]P[Ac5c][NMeGly(cPent)][NMeD]-Morpholide; lactam N-11) | 180 | C (A compound having a KD ratio of 0.1 or more and less than 3 is denoted as C) | B (a compound having 3 or more and less than 10 is denoted as B) |
| CC[C@H](C)[C@@H]1NC(=O)[C@H](CC(C)C)N(C)C(=O)C[C@@H](C(=O)N2CCOCC2)N(C)C(=O)[C@H](C2CCCC2)N(C)C(=O)C2(CCCC2)NC(=O)[C@@H]2CCCN2C(=O)[C@H](CCc2ccc(C(F)(F)F)c(Cl)c2)NC(=O)CN(C)C(=O)[C@H](Cc2ccc(Cl)cc2)N2C/C=C\CC[C@@H](C2=O)N(C)C(=O)CN(C)C1=O [PP0608] | 1.7 | C (A compound having a KD ratio of 0.1 or more and less than 3 is denoted as C) | B (a compound having 3 or more and less than 10 is denoted as B) |
| CC[C@H](C)[C@@H]1NC(=O)[C@H](CC(C)C)N(C)C(=O)C[C@@H](C(=O)N2CCOCC2)N(C)C(=O)[C@H](C2CCCC2)N(C)C(=O)C2(CCCC2)NC(=O)[C@@H]2CCCN2C(=O)[C@H](CCc2ccc(C(F)(F)F)c(Cl)c2)NC(=O)CN(C)C(=O)[C@H](Cc2ccc(OC(F)(F)F)cc2)N2C/C=C\CC[C@@H](C2=O)N(C)C(=O)CN(C)C1=O [PP0610] | 49 | B (a compound having 3 or more and less than 10 is denoted as B) | B (a compound having 3 or more and less than 10 is denoted as B) |
| CC[C@H](C)[C@@H]1NC(=O)[C@H](CC(C)C)N(C)C(=O)C[C@@H](C(=O)N2CCOCC2)N(C)C(=O)[C@H](C2CCCC2)N(C)C(=O)C2(CCCC2)NC(=O)[C@@H]2CCCN2C(=O)[C@H](CCc2ccc(C(F)(F)F)c(Cl)c2)NC(=O)CN(C)C(=O)[C@H](Cc2ccc(F)cc2)N2CCCCC[C@@H](C2=O)N(C)C(=O)CN(C)C1=O [PP0612] | 0.39 | B (a compound having 3 or more and less than 10 is denoted as B) | B (a compound having 3 or more and less than 10 is denoted as B) |
| CC[C@H](C)[C@@H]1NC(=O)[C@H](CC(C)C)N(C)C(=O)C[C@@H](C(=O)N2CCOCC2)N(C)C(=O)[C@H](C2CCCC2)N(C)C(=O)C2(CCCC2)NC(=O)[C@@H]2CCCN2C(=O)[C@H](CCc2ccc(C(F)(F)F)c(Cl)c2)NC(=O)CN(C)C(=O)[C@H](Cc2ccc(Cl)cc2)N2CCCCC[C@@H](C2=O)N(C)C(=O)CN(C)C1=O [PP0613] | 0.6 | B (a compound having 3 or more and less than 10 is denoted as B) | B (a compound having 3 or more and less than 10 is denoted as B) |
| CC[C@H](C)[C@@H]1NC(=O)[C@H](CC(C)C)N(C)C(=O)C[C@@H](C(=O)N2CCOCC2)N(C)C(=O)[C@H](C2CCCC2)N(C)C(=O)C2(CCCC2)NC(=O)[C@@H]2CCCN2C(=O)[C@H](CCc2ccc(C(F)(F)F)c(Cl)c2)NC(=O)CN(C)C(=O)[C@H](Cc2ccc(OC)cc2)N2CCCCC[C@@H](C2=O)N(C)C(=O)CN(C)C1=O [PP0614] | 1.1 | B (a compound having 3 or more and less than 10 is denoted as B) | B (a compound having 3 or more and less than 10 is denoted as B) |
